{
  "source": "paper PMC6915728",
  "about": "(Nature Communications, 2019)",
  "key": {"E. coli BW25113 ΔmlaD": {"system": "E. coli BW25113 ΔmlaD", "experiment": "MIC, serial broth dilution, mlaD knockout strain vs wild type", "type": "cell-based, Escherichia coli", "conditions": "mlaD deletion strain vs control E. coli BW25113; average of 3 replicates"}, "[1]": {"system": "AMP-evolved E. coli lines", "experiment": "Cross-resistance / collateral sensitivity: relative MIC change of 38 laboratory-evolved AMP-resistant lines vs parental strain", "type": "cell-based, Escherichia coli", "conditions": "AMP-adapted line PR39_10; measured here", "source_text": "Here, we extended this dataset by measuring susceptibility changes of the same evolved lines to four additional AMPs using identical protocols to represent AMPs from all four clusters (Supplementary Fig. 15a, see also Methods). Overall, the resulting dataset of susceptibility profiles provides a comprehensive map of cross-resistance and collateral sensitivity between AMPs representing various modes of action.\nTo characterize the cross-resistance of the 38 E. coli lineages we obtained relative MIC changes that are, the MIC values of the evolved lines compared to these of the parental strain, from two data sources. First, we used already measured relative MIC changes from Spohn et al. Supplementary data 4[20]. […] Second, we extended this dataset by measuring the relative MIC changes of the same evolved lines to four additional AMPs using identical protocol. […] In this way, AMPs from each cluster were represented in the dataset.\nSupplementary Figure 15. […] Relative change in MIC was determined for each evolved line by comparing its MIC to the ancestral cell line (control). […] CAP18-adaped lines were not included in the analysis because CAP18 is known as a membrane-targeting AMP in the literature. c, Cross-resistance interactions are enriched between membrane-targeting AMPs that are in the same chemical-genetic clusters (i.e. AMP pairs within C1 and within C2 clusters) (Significant difference: ** P = 0.0082 from two-sided Fisher’s exact test, n = 61 and 62 for within cluster and between clusters, respectively). […] Source data are provided as a Source Data file."}, "[2]": {"system": "AMP-evolved E. coli lines", "conditions": "ref Spohn et al 2019, cited from earlier work", "source_text": "Supplement 41467_2019_13618_MOESM13_ESM.xlsx, sheet \"Figure 6 and S15\" | column: A comprehensive dataset of antimicrobial susceptibility of AMP-adapted lines to antimicrobial peptides (AMPs)."}},
  "note": "Like-named read-outs stand apart in the source and are kept apart here.",
  "data": [
    {"sequence": "ILPWKWPWWPWRR [IND, Indolicidin, antimicrobial peptide from bovine neutrophils; cluster C3]", "values": [
      {"measurement": "Average relative change in MIC", "setting": "E. coli BW25113 ΔmlaD", "value": 0.71},
      {"measurement": "Relative change in MIC (MIC of the AMP-adpated line / MIC of the ancestral strain)", "setting": "[1]", "value": 1.3},
      {"measurement": "Relative change in MIC (MIC of the AMP-adpated line / MIC of the ancestral strain)", "setting": "[2]; AMP-adapted line BAC5_3", "value": 1.2},
      {"measurement": "Relative change in MIC (MIC of the AMP-adpated line / MIC of the ancestral strain)", "setting": "[2]; AMP-adapted line BAC5_5", "value": 0.8},
      {"measurement": "Relative change in MIC (MIC of the AMP-adpated line / MIC of the ancestral strain)", "setting": "[2]; AMP-adapted line BAC5_7", "value": 0.9},
      {"measurement": "Relative change in MIC (MIC of the AMP-adpated line / MIC of the ancestral strain)", "setting": "[2]; AMP-adapted line BAC5_10", "value": 1},
      {"measurement": "Relative change in MIC (MIC of the AMP-adpated line / MIC of the ancestral strain)", "setting": "[2]; AMP-adapted line CAP18_2", "value": 1},
      {"measurement": "Relative change in MIC (MIC of the AMP-adpated line / MIC of the ancestral strain)", "setting": "[2]; AMP-adapted line CAP18_5", "value": 0.6},
      {"measurement": "Relative change in MIC (MIC of the AMP-adpated line / MIC of the ancestral strain)", "setting": "[2]; AMP-adapted line CAP18_6", "value": 0.6},
      {"measurement": "Relative change in MIC (MIC of the AMP-adpated line / MIC of the ancestral strain)", "setting": "[2]; AMP-adapted line CAP18_8", "value": 1},
      {"measurement": "Relative change in MIC (MIC of the AMP-adpated line / MIC of the ancestral strain)", "setting": "[2]; AMP-adapted line CAP18_10", "value": 0.8},
      {"measurement": "Relative change in MIC (MIC of the AMP-adpated line / MIC of the ancestral strain)", "setting": "[2]; AMP-adapted line HBD3_3", "value": 1.3},
      {"measurement": "Relative change in MIC (MIC of the AMP-adpated line / MIC of the ancestral strain)", "setting": "[2]; AMP-adapted line HBD3_6", "value": 1},
      {"measurement": "Relative change in MIC (MIC of the AMP-adpated line / MIC of the ancestral strain)", "setting": "[2]; AMP-adapted line HBD3_8", "value": 0.8},
      {"measurement": "Relative change in MIC (MIC of the AMP-adpated line / MIC of the ancestral strain)", "setting": "[2]; AMP-adapted line HBD3_10", "value": 1.2},
      {"measurement": "Relative change in MIC (MIC of the AMP-adpated line / MIC of the ancestral strain)", "setting": "[2]; AMP-adapted line LL37_1", "value": 0.8},
      {"measurement": "Relative change in MIC (MIC of the AMP-adpated line / MIC of the ancestral strain)", "setting": "[2]; AMP-adapted line LL37_3", "value": 0.8},
      {"measurement": "Relative change in MIC (MIC of the AMP-adpated line / MIC of the ancestral strain)", "setting": "[2]; AMP-adapted line LL37_6", "value": 0.6},
      {"measurement": "Relative change in MIC (MIC of the AMP-adpated line / MIC of the ancestral strain)", "setting": "[2]; AMP-adapted line LL37_7", "value": 1},
      {"measurement": "Relative change in MIC (MIC of the AMP-adpated line / MIC of the ancestral strain)", "setting": "[2]; AMP-adapted line LL37_10", "value": 0.8},
      {"measurement": "Relative change in MIC (MIC of the AMP-adpated line / MIC of the ancestral strain)", "setting": "[2]; AMP-adapted line PEX_1", "value": 1},
      {"measurement": "Relative change in MIC (MIC of the AMP-adpated line / MIC of the ancestral strain)", "setting": "[2]; AMP-adapted line PEX_4", "value": 1.4},
      {"measurement": "Relative change in MIC (MIC of the AMP-adpated line / MIC of the ancestral strain)", "setting": "[2]; AMP-adapted line PEX_5", "value": 1},
      {"measurement": "Relative change in MIC (MIC of the AMP-adpated line / MIC of the ancestral strain)", "setting": "[2]; AMP-adapted line PEX_6", "value": 1},
      {"measurement": "Relative change in MIC (MIC of the AMP-adpated line / MIC of the ancestral strain)", "setting": "[2]; AMP-adapted line PEX_7", "value": 1.2},
      {"measurement": "Relative change in MIC (MIC of the AMP-adpated line / MIC of the ancestral strain)", "setting": "[2]; AMP-adapted line PR39_1", "value": 1.1},
      {"measurement": "Relative change in MIC (MIC of the AMP-adpated line / MIC of the ancestral strain)", "setting": "[2]; AMP-adapted line PR39_2", "value": 1},
      {"measurement": "Relative change in MIC (MIC of the AMP-adpated line / MIC of the ancestral strain)", "setting": "[2]; AMP-adapted line PR39_5", "value": 1.3},
      {"measurement": "Relative change in MIC (MIC of the AMP-adpated line / MIC of the ancestral strain)", "setting": "[2]; AMP-adapted line PR39_7", "value": 0.9},
      {"measurement": "Relative change in MIC (MIC of the AMP-adpated line / MIC of the ancestral strain)", "setting": "[2]; AMP-adapted line PROA_2", "value": 1.1},
      {"measurement": "Relative change in MIC (MIC of the AMP-adpated line / MIC of the ancestral strain)", "setting": "[2]; AMP-adapted line PROA_3", "value": 0.8},
      {"measurement": "Relative change in MIC (MIC of the AMP-adpated line / MIC of the ancestral strain)", "setting": "[2]; AMP-adapted line PROA_7", "value": 0.8},
      {"measurement": "Relative change in MIC (MIC of the AMP-adpated line / MIC of the ancestral strain)", "setting": "[2]; AMP-adapted line PROA_8", "value": 1.1},
      {"measurement": "Relative change in MIC (MIC of the AMP-adpated line / MIC of the ancestral strain)", "setting": "[2]; AMP-adapted line PROA_9", "value": 1},
      {"measurement": "Relative change in MIC (MIC of the AMP-adpated line / MIC of the ancestral strain)", "setting": "[2]; AMP-adapted line PXB_2", "value": 2.1},
      {"measurement": "Relative change in MIC (MIC of the AMP-adpated line / MIC of the ancestral strain)", "setting": "[2]; AMP-adapted line PXB_5", "value": 3},
      {"measurement": "Relative change in MIC (MIC of the AMP-adpated line / MIC of the ancestral strain)", "setting": "[2]; AMP-adapted line PXB_6", "value": 3},
      {"measurement": "Relative change in MIC (MIC of the AMP-adpated line / MIC of the ancestral strain)", "setting": "[2]; AMP-adapted line PXB_8", "value": 2.7},
      {"measurement": "Relative change in MIC (MIC of the AMP-adpated line / MIC of the ancestral strain)", "setting": "[2]; AMP-adapted line PXB_10", "value": 1.6}
    ]}
  ]
}
